The text below walks through data of publication PMC10451034, “Highly Efficient Photosensitizers with Molecular Vibrational Torsion for Cancer Photodynamic Therapy” (ACS Central Science, 2023).

Common to all, as to type: cell-based, human
Series [1] has as its system HepG2 cells. The series can be described thus: Confocal imaging of cellular uptake, subcellular localization and membrane damage. To be noted: for cell membrane damage on illumination: CLSM, illumination 0-4 min; for cellular distribution / Pearson correlation (colocalization) coefficient with MitoTracker Green: HepG2 cells; for cellular distribution: incubated 90 min; for photostability in cells: fluorescence intensity in cells during light irradiation; for Pearson correlation (colocalization) coefficient with MitoTracker Green: mitochondria. As for the experimental part: In view of QTCy7-R having strong singlet oxygen generation potency and reasonable wavelength, human hepatocellular carcinoma cells were selected for photoactivity experiments in vitro. On account of their low molecular weights and intrinsic positive cationic charge, QTCy7-R could be quickly taken up by cells within 90 min (Figure S19a,b). […] According to our supposition, the enhanced partial cationic charge caused by the introduction of the EWG in QTCy7-Ac or QTCy7-CHO made it easier for them to cling to the cell membrane with negative charge than to cross it.
(§1) Next, in order to verify the disruption effect on cell structural integrity of the ^1O2 generation by QTCy7-R under irradiation, JC-1 staining imaging was conducted to monitor the mitochondria membrane potential. […] On the other hand, cell membrane damage caused by the photooxidation of QTCy7-Ac and QTCy7-CHO could be confirmed by a visualized observation. […] Furthermore, the lactate dehydrogenase (LDH) content in cell culture medium was measured to characterize the extent of cell membrane damage.[49] […]
(§2) medium (DMEM, Invitrogen) with 10 % fetal bovine serum (Invitrogen) and 1% penicillinstreptomycin. All cells were treated at 37 °C with the humidified atmosphere containing 5% CO2 and 95% air. Before conducting cell imaging experiments, all types of cells were maintained on 35 mm glass-bottom cell dishes for 24 h.
(§3) Confocal fluorescence imaging
After culturing the cells in 35 mm glass-bottom cell dishes for 24 h, the DMEM medium was replaced with saline, then QTCy7-R was added (3 μM). The confocal fluorescence imaging was carried out and images were recorded. (λex = 640 nm, λem = 680-780 nm). In the suborganelle localization experiment s, the cells were incubated with 3 μM QTCy7-R for 90 min and then stained with LysoTracker Green DND 26 (200 nM) and MitoTracker Green FM (200 nM), respectively. After fluorescence imaging, colocalization coefficient was analyzed and recorded. (LysoTracker Green DND 26 and MitoTracker Green FM: λex = 488 nm, λem = 500-550 nm). […]

The test system of series [2] is HepG2 cells. The experiment in a line: Intracellular ROS detection with DCFH-DA. Particulars: after 660 nm light irradiation. As for the experimental part: In order to explore the mechanism of cellular structure destruction caused by QTCy7-R, intracellular ROS generation was investigated by DCFH-DA reagent. […] Ulteriorly, cell destruction caused by ROS generation was assessed by Calcein-AM/propidium iodide (PI)-mediated fluorescence imaging (Figures 9c and S21). […]
as §2, §3
After culturing the cells in 35 mm glass-bottom cell dishes for 24 h, the DMEM medium was replaced with saline, then QTCy7-R was added (3 μM). The confocal fluorescence imaging was carried out and images were recorded. (λex = 640 nm, λem = 680-780 nm). […] After fluorescence imaging, colocalization coefficient was analyzed and recorded. […]
(§4) fluorescence signal (JC-1 monomer). […]
(§5) 2,7-dichlorofluorescein diacetate (DCFH-DA) Detection Kit was chosen to validate the intracellular ROS generation. […] Then the cells were exposed under NIR irradiation, after which the confocal fluorescence imaging was performed . […]

The test system of series [3] is HepG2 cells. The series can be described thus: Mitochondrial membrane potential detection by JC-1 staining. To be noted: 660 nm irradiation (6 J/cm^2). As for the experimental part: as §1
medium (DMEM, Invitrogen) with 10 % fetal bovine serum (Invitrogen) and 1% penicillinstreptomycin. All cells were treated at 37 °C with the humidified atmosphere containing 5% CO2 and 95% air. […]
as §3
After culturing the cells in 35 mm glass-bottom cell dishes for 24 h, the DMEM medium was replaced with saline, then QTCy7-R was added (3 μM). The confocal fluorescence imaging was carried out and images were recorded. […] After fluorescence imaging, colocalization coefficient was analyzed and recorded. […]
as §4, §5

Consider `CCN1/C(=C/C=C2\C=C(C=O)C=C(/C=C/c3sc4ccccc4[n+]3CC)C2=O)Sc2ccccc21` [QTCy7-CHO], for which, in the series with HepG2 cells [1], the “cell membrane damage on illumination” value is “did not cause severe cell membrane rupture”, the cellular distribution entry is “effectively adhere to the cell membrane” and the photostability in cells entry is “good photostability”.

As to `CCOC(=O)C1=C/C(=C\C=C2/Sc3ccccc3N2CC)C(=O)C(/C=C/c2sc3ccccc3[n+]2CC)=C1` [QTCy7-Ac], the “intracellular ROS generation (DCFH-DA fluorescence)” value in the series on HepG2 cells [2] was “stronger fluorescence signal”. For the same compound, in the series on HepG2 cells [1], the “cell membrane damage on illumination” value is listed as “formation of distinct bubblelike structures”, the cellular distribution result is “effectively adhere to the cell membrane” and the photostability in cells result is “good photostability”.

For the compound `CCN1/C(=C/C=C2\C=C(C)C=C(/C=C/c3sc4ccccc4[n+]3CC)C2=O)Sc2ccccc21` [QTCy7-Me], in the series on HepG2 cells [1], the cellular distribution result was “could get inside cells” and the “Pearson correlation (colocalization) coefficient with MitoTracker Green” value is 0.92. Further, the “mitochondrial membrane potential change” value in the series on HepG2 cells [3] was “severe mitochondrial depolarization”.

As for `CCN1/C(=C/C=C2\C=C(c3ccccc3)C=C(/C=C/c3sc4ccccc4[n+]3CC)C2=O)Sc2ccccc21` [QTCy7-Ph], the “intracellular ROS generation (DCFH-DA fluorescence)” value in the series with HepG2 cells [2] is “stronger fluorescence signal”. In addition, in the series with HepG2 cells [1], the cellular distribution result was “could get inside cells” and the “Pearson correlation (colocalization) coefficient with MitoTracker Green” value came out at 0.89. Further, the “mitochondrial membrane potential change” value in the series on HepG2 cells [3] is “severe mitochondrial depolarization”.
